Assay results: patent US20150291625A1 (PFIZER INC., priority 2012, published 2015)
Several values for one entry are separate records, joined by “and”; a condition that tells them apart may be missing. Identical values can stand only once. Counter-ions that a name gives are not always drawn.

Columns and labels:
D1 [1] = molecular target: T1, D1 (Homo sapiens, UniProt P21728); assay: D1 cAMP HTRF assay (HEK293T/hD1#1 stable cell line); assay type: cell-based; set-up: expressed in transfected cells
T1 sequence (P21728 whole entry): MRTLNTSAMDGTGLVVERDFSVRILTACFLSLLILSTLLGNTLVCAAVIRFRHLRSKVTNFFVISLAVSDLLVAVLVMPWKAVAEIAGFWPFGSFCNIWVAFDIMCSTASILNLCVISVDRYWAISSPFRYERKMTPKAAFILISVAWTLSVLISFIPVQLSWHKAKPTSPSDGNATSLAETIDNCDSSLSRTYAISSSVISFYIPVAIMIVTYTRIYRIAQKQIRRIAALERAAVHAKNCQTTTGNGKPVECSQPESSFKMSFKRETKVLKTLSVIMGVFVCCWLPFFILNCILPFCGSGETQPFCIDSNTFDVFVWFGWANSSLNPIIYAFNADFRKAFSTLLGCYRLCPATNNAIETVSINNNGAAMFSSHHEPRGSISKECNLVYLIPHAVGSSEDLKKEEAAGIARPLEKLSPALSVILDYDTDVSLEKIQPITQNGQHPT
Source text: This assay was used to determine the ability of a test compound to agonize (including partially agonize) D1. A Mab anti-cAMP labeled Cryptate visualizes the tracer. […] The signal, therefore, is inversely proportional to the concentration of cAMP in the sample.
The cAMP Dynamic kit was obtained from Cisbio International (Cisbio 62AM4PEJ). Multidrop Combi (Thermo Scientific) was used for assay additions. Envision (PerkinElmer) reader was used to read HTRF.
A HEK293T/hD1#1 stable cell line was constructed internally (Pfizer Ann Arbor). […] One mL aliquots of the cells were made in Cryo-vials and frozen at −80° C. for future use in the D1 HTRF assay.
Frozen cells were quickly thawed, re-suspended in 50 mL warm media and allowed to sit for 5 min prior to centrifugation (1000 rpm) at room temperature. Media was removed and cell pellet was re-suspended in PBS/0.5 μM IBMX generating 2e5 cells/mL. […] Cells and compounds were incubated at room temperature for 30 min. Working solutions of cAMP-D2 and anti-cAMP-cryptate were prepared according to Cisbio instructions. Using Multidrop, 5 μL cAMP-D2 working solution was added to the assay plate containing the test compound and cells. Using Multidrop, 5 μL anti-cAMP-cryptate working solutions was added to assay plate containing test compound, cells and cAMP-D2. Assay plate was incubated for 1 hour at room temperature. Assay plate was read on Envision plate reader using Cisbio recommended settings. A cAMP standard curve was generated using cAMP stock solution provided in the Cisbio kit.
Data analysis was done using computer software. Percent effects were calculated from the compound controls. Ratio EC50 was determined using the raw ratio data from the Envision reader. The cAMP standard curve was used in an analysis program to determine cAMP concentrations from raw ratio data. cAMP EC50 was determined using the calculated cAMP data.

D1 [2] = molecular target: T1, D1; assay: Human D1 receptor binding assay ([3H]-SCH23390 competition); conditions: Human D1 Receptor Binding, Ki (nM), Geometric mean of 2-4 determinations, a: >=5 determinations, d: single determination

| EC50 (D1 [1]) | Ki (D1 [2]) [nM] | Compound |
| --- | --- | --- |
| 3680 nM | 121 | CC(NCc1cc(Oc2nccc3occc23)ccc1-c1cccc2nccn12)c1cncs1 (centres unmarked) [Example 49, N-[5-(furo[3,2-c]pyridin-4-yloxy)-2-(imidazo[1,2-a]pyridin-5-yl)benzyl]-1-(1,3-thiazol-5-yl)ethanamine, trifluoroacetate salt] |
| 1130 nM | 55.1 | CN(Cc1ccccn1)Cc1cc(Oc2nccc3occc23)ccc1-c1cccc2nccn12 [Example 50, 1-[5-(furo[3,2-c]pyridin-4-yloxy)-2-(imidazo[1,2-a]pyridin-5-yl)phenyl]-N-methyl-N-(pyridin-2-ylmethyl)methanamine, trifluoroacetate salt] |
| 799 nM and 1220 nM | 61.7 | COc1cc(Oc2nccc3occc23)ccc1-c1c(C)ccnc1C#N [Example 51, 3-[4-(furo[3,2-c]pyridin-4-yloxy)-2-methoxyphenyl]-4-methylpyridine-2-carbonitrile, trifluoroacetate salt] |
| 463 nM | 53 | Cc1cc(Oc2nccc3occc23)ccc1-c1cccnc1C [Example 52, 4-[3-methyl-4-(2-methylpyridin-3-yl)phenoxy]furo[3,2-c]pyridine] |
| 953 nM | 173 | Cc1cc(Oc2nccc3occc23)ccc1-c1nc(N)cnc1C [Example 53, 6-[4-(furo[3,2-c]pyridin-4-yloxy)-2-methylphenyl]-5-methylpyrazin-2-amine, trifluoroacetate salt] |
| 243 nM | 10.2 | FC(F)(F)c1cc(Oc2nccc3occc23)ccc1-c1cccc2nccn12 [Example 54, 4-[4-(imidazo[1,2-a]pyridin-5-yl)-3-(trifluoromethyl)phenoxy]furo[3,2-c]pyridine] |
| > 29900 nM | 244 | Cc1cc(N(C)c2nccc3occc23)ccc1-c1cccc2nccn12 [Example 55, N-[4-(imidazo[1,2-a]pyridin-5-yl)-3-methylphenyl]-N-methylfuro[3,2-c]pyridin-4-amine] |
| 633 nM and 435 nM | 98.7 | Cc1cc(Oc2nccc3occc23)ccc1-c1ccc(N)nc1C [Example 56, 5-[4-(furo[3,2-c]pyridin-4-yloxy)-2-methylphenyl]-6-methylpyridin-2-amine] |
| 116 nM | 17.4 | Cc1ncc2nccn2c1-c1ccc(Oc2nccc3occc23)cc1O [Example 57, 5-(furo[3,2-c]pyridin-4-yloxy)-2-(6-methylimidazo[1,2-a]pyrazin-5-yl)phenol] |
| 900 nM and 1110 nM | 160 | Cc1cc(Oc2nccc3occc23)ccc1-c1cncnc1C [Example 58, 4-[3-methyl-4-(4-methylpyrimidin-5-yl)phenoxy]furo[3,2-c]pyridine] |
| 1010 nM and 1150 nM | 103 | Cc1cc(Oc2nccc3occc23)ccc1-c1cccc2[nH]c(=O)ccc12 [Example 59, 5-[4-(furo[3,2-c]pyridin-4-yloxy)-2-methylphenyl]quinolin-2(1H)-one] |
| 2910 nM and 1040 nM | 178 | COc1ccc(-c2ccc(Oc3nccc4occc34)cc2C)c(C)n1 [Example 60, 4-[4-(6-methoxy-2-methylpyridin-3-yl)-3-methylphenoxy]furo[3,2-c]pyridine, trifluoroacetate salt] |
| 1110 nM and 811 nM | 228 | Cc1nccnc1-c1ccc(Oc2nccc3occc23)cc1OCCCN(C)C [Example 61, 3-[5-(furo[3,2-c]pyridin-4-yloxy)-2-(3-methylpyrazin-2-yl)phenoxy]-N,N-dimethylpropan-1-amine, formate salt] |
| 1350 nM and 843 nM | 210 | Cc1cc(Oc2nccc3occc23)ccc1-c1c(C)ncnc1N [Example 63, 5-[4-(furo[3,2-c]pyridin-4-yloxy)-2-methylphenyl]-6-methylpyrimidin-4-amine] |
| 134 nM | 12.1 | CCc1cc(Oc2nccc3occc23)ccc1-c1c(C)ncc2nccn12 [Example 64, 5-[2-ethyl-4-(furo[3,2-c]pyridin-4-yloxy)phenyl]-6-methylimidazo[1,2-a]pyrazine] |
| 193 nM and 300 nM | 61.1 | Cc1ncc2nccn2c1-c1ccc(Oc2nccc3occc23)cc1F [Example 65, 5-[2-fluoro-4-(furo[3,2-c]pyridin-4-yloxy)phenyl]-6-methylimidazo[1,2-a]pyrazine] |
| 737 nM | 85.4 | Cc1nccnc1-c1ccc(Oc2nccc3occc23)cc1OCc1c(C)noc1C [Example 66, 4-{3-[(3,5-dimethyl-1,2-oxazol-4-yl)methoxy]-4-(3-methylpyrazin-2-yl)phenoxy}furo[3,2-c]pyridine, formate salt] |

| EC50 (D1 [1]) | Ki (D1 [2]) [nM] | Compound |
| --- | --- | --- |
| 1480 nM | 154 | Cc1cccnc1COc1cc(Oc2nccc3occc23)ccc1-c1nccnc1C [Example 68, 4-{4-(3-methylpyrazin-2-yl)-3-[(3-methylpyridin-2-yl)methoxy]phenoxy}furo[3,2-c]pyridine, formate salt] |
| 201 nM and 203 nM | 77.7 | Cc1ncnc(C)c1-c1ccc(Oc2nccc3occc23)cc1F [Example 69, 4-[4-(4,6-dimethylpyrimidin-5-yl)-3-fluorophenoxy]furo[3,2-c]pyridine] |
| 424 nM and 1020 nM | 124 | Cc1ncnc(C#N)c1-c1ccc(Oc2nccc3occc23)cc1F [Example 70, 5-[2-fluoro-4-(furo[3,2-c]pyridin-4-yloxy)phenyl]-6-methylpyrimidine-4-carbonitrile] |
| 298 nM and 965 nM | 50.5 | COc1cc(Oc2nccc3occc23)ccc1-c1c(C)ncnc1C [Example 71, 4-[4-(4,6-dimethylpyrimidin-5-yl)-3-methoxyphenoxy]furo[3,2-c]pyridine] |
| 989 nM | 91.4 | Cc1ncnc(C)c1-c1ccc(Oc2nccc3occc23)cc1O [Example 72, 2-(4,6-dimethylpyrimidin-5-yl)-5-(furo[3,2-c]pyridin-4-yloxy)phenol] |
| 748 nM and 966 nM | 37.7 | Cc1ncccc1-c1ccc(Oc2nccc3occc23)cc1OCCCN(C)C [Example 73, 3-[5-(furo[3,2-c]pyridin-4-yloxy)-2-(2-methylpyridin-3-yl)phenoxy]-N,N-dimethylpropan-1-amine, formate salt] |
| 364 nM | 21.6 | Cc1cc(Oc2nccc3occc23)ccc1-c1c(C)nc(N)nc1C [Example 75, 5-[4-(furo[3,2-c]pyridin-4-yloxy)-2-methylphenyl]-4,6-dimethylpyrimidin-2-amine] |
| 903 nM and 2170 nM | 139 | COc1ncnc(C)c1-c1ccc(Oc2nccc3occc23)cc1F [Example 76, 4-[3-fluoro-4-(4-methoxy-6-methylpyrimidin-5-yl)phenoxy]furo[3,2-c]pyridine] |
| 200 nM and 674 nM | 45.6 | Cc1ncnc(C)c1-c1ccc(Oc2nccc3occc23)cc1 [Example 77, 4-[4-(4,6-dimethylpyrimidin-5-yl)phenoxy]furo[3,2-c]pyridine] |
| 885 nM and 1230 nM | 48.3 | CCc1noc(COc2cc(Oc3nccc4occc34)ccc2-c2cccnc2C)n1 [Example 78, 4-{3-[(3-ethyl-1,2,4-oxadiazol-5-yl)methoxy]-4-(2-methylpyridin-3-yl)phenoxy}furo[3,2-c]pyridine] |
| 2550 nM and 1680 nM | 140 | Cc1nc(O)nc(C)c1-c1ccc(Oc2nccc3occc23)cc1 [Example 79, 5-[4-(furo[3,2-c]pyridin-4-yloxy)phenyl]-4,6-dimethylpyrimidin-2-ol] |
| 1200 nM and 987 nM | 6.13 | Cc1cc(Oc2nccc3occc23)ccc1-c1c(C)ncc2nc(C(F)(F)F)cn12 [Example 80, 5-[4-(furo[3,2-c]pyridin-4-yloxy)-2-methylphenyl]-6-methyl-2-(trifluoromethyl)imidazo[1,2-a]pyrazine] |
| 1770 nM | 270 | CNc1ncnc(C)c1-c1ccc(Oc2nccc3occc23)cc1C [Example 81, 5-[4-(furo[3,2-c]pyridin-4-yloxy)-2-methylphenyl]-N,6-dimethylpyrimidin-4-amine] |
| 360 nM | 116 | Cc1cc(Oc2nccc3occc23)ccc1-c1c(C)nc(N)nc1C#N [Example 84, 2-amino-5-[4-(furo[3,2-c]pyridin-4-yloxy)-2-methylphenyl]-6-methylpyrimidine-4-carbonitrile] |
| 1120 nM and 4880 nM | 75.3 | Cc1cc(Oc2nccc3occc23)ccc1-c1c(C)nc2cnccn12 [Example 85, 3-[4-(furo[3,2-c]pyridin-4-yloxy)-2-methylphenyl]-2-methylimidazo[1,2-a]pyrazine] |
| 833 nM and 4870 nM | 113 | Cc1cc(Oc2nccc3occc23)ccc1-c1cc(N)cnc1C [Example 86, 5-[4-(furo[3,2-c]pyridin-4-yloxy)-2-methylphenyl]-6-methylpyridin-3-amine] |
| 600 nM and 482 nM | 22.5 | Cc1cc(Oc2nccc3occc23)ccc1-c1c(C)ncnc1N(C)C [Example 87, 5-[4-(furo[3,2-c]pyridin-4-yloxy)-2-methylphenyl]-N,N,6-trimethylpyrimidin-4-amine] |
